Measured values published in US20200138764A1, “METHODS AND DEVICES FOR ACTIVATING ADIPOSE TISSUE” (The Procter & Gamble Company, priority 2018, published 2020).

Biological target: human TRPM8
Test: TRPM8 Protocol-FLIPR Assay (intracellular Ca2+)
Assay type: cell-based
Conditions: HEK-293 cells stably transfected with human TRPM8, Fluo-4 AM, relative to benchmark agonist WS-5
Protocol: To determine whether TRPM8 is activated, the intracellular calcium ion (Ca^2+) level was measured from transfected cells with the TRPM8 receptor sequence (SEQ ID NO: 1). HEK-293 (human embryonic kidney) cells stably transfected with human TRPM8 were grown in 15 mL growth medium (high glucose DMEM (Dulbecco's Modification of Eagle's Medium) supplemented with 10% FBS (fetal bovine serum), 100 μg/mL penicillin/streptomycin, 5 μg/mL blasticindin, and 100 μg/mL zeocin) in a 75 cm^2 flask for 3 days at 37° C. in a mammalian cell culture incubator (Forma Scientific Model 3110, Marietta, Ohio) set at 5% CO2. Cells were detached with addition of 2 mL of trypsin-EDTA buffer (GIBCO® 25200, Invitrogen, Grand Island, N.Y.) for about 2-3 min. Trypsin was inactivated by addition of 8 mL growth medium. Cells were transferred to a 50 mL tube and centrifuged at 850 rpm for 3 minutes to remove medium. After centrifugation, a pellet of cells was formed in the bottom of the tube separating them from the supernatant solution. The supernatant was discarded and the cell pellet was suspended in 1 mL of fresh growth medium to which 5 μL (12.5 μg) of Fluo-4 AM (Molecular Probes, Inc., Eugene, Oreg.) calcium indicator was added and incubated for 30 min with gentle shaking. Fluo-4 AM is a fluorescent dye used for quantifying cellular Ca^2+ concentrations in the 100 nM to 1 μM range. At the end of 30 minutes, 45 mL of assay buffer (1×HBSS (Hank's Balanced Salt Solution), 20 mM HEPES (4-(2-Hydroxyethyl)-1-piperazineethanesulfonic acid)) was added to wash cells and the resulting mixture was then centrifuged at 850 rpm for 3 minutes at 20° C. to remove excess buffer and Fluo-4 AM calcium indicator.
The pelleted cells were re-suspended in 10 mL assay buffer and 90 μL aliquots (˜50,000 cells) per well delivered to a 96-well assay plate containing 10 μL of test compounds (1 mM in assay buffer, final concentration 100 μM) or buffer control and incubated at room temperature for 30 minutes. After 30 minutes, a plate (Falcon 353219, Corning Corning N.Y.) was placed into a fluorometric imaging plate reader (FLIPR384 from Molecular Devices, Sunnyvale, Calif.) and basal fluorescence recorded (excitation wave length 488 nm and emission wave length 510 nm). Then 20 μL of 100 mM of TRPM8 agonist WS5 coolant in the assay buffer was added and fluorescence recorded. For determining the direct effect of test compounds on TRPM8, fluorescence was measured immediately after addition of each compound (TABLE 1). Additional discussion of the FLIPR method can be found in Smart et al., Characterization using FLIPR of human vanilloid VR1 receptor pharmacology, European Journal of Pharmacology 417, 51-58 (2001) and Liu et al., Development and validation of a platelet calcium flux assay using a fluorescent imaging plate reader, Analytical Biochemistry 357, 216-224 (2006).
The magnitude of the fluorescence of the active-treated cells was compared to the magnitude of the fluorescence from a benchmark agonist (WS-5), as described above. The percentage of fluorescence as a function of active dose was plotted and a sigmoidal curve was generated. Curve fitting from this dose-response curve yielded the value for TRPM8 IC50 in nM.
TRPM8 activation was determined by measuring intracellular calcium ion (Ca^2+) level from transfected cells with the TRPM8 receptor gene, as described in EXAMPLE 1, the results of which are shown in TABLE 1. IC50 values are provided in column 3 of TABLE 1, which measured the concentration of activating compound needed to reduce intracellular [Ca^2+] by 50%. […]

IC50 [nM]	SMILES
2	CC(C)[C@@H]1CC[C@@H](C)C[C@H]1C(=O)NC[C@@H](NC(=O)[C@H](C)N)c1ccccc1 [Formula III]
7000	CC1CCC(C(C)C)C(O)C1 (stereo not drawn) [Menthol]
2000	CCOC(=O)CNC(=O)[C@@H]1C[C@H](C)CC[C@H]1C(C)C [WS-5]
